# Experimental data taken from patent EP4793274A1, “SALT AND CRYSTAL FORM OF KIF18A INHIBITOR COMPOUND, PREPARATION METHOD THEREFOR AND USE THEREOF” (Hubei Bio-Pharmaceutical Industrial Technological Institute …, priority 2023, dated 2025).
# Structures can show the parent of a compound that is named as a salt.
# Tests used:
# [1] = Dynamic solubility at 37 °C in H2O, SGF, FaSSIF and FeSSIF (HPLC concentration, pH of filtrate, XRPD of residual solid); format: physicochemical; conditions: listed as Crystal form A of maleate; for S: solubility: feeding concentration 10 mg/mL; for FC: crystal form change: XRPD of residual solid; for pH: pH of filtrate
# Procedure: 0.82 mL of glacial acetic acid and 1.18 g of NaCl were added to a 100 mL volumetric flask and completely dissolved by addition of purified water.
# The solubility of each sample in H2O, SGF, FaSSIF, and FeSSIF was determined at different time points (1 h, 2 h, 4 h, and 24 h). […] 137-156. […] Table C-2. Summary of dynamic solubility test results at 37 °C
# [2] = Hygroscopicity by dynamic vapor sorption (DVS); format: physicochemical; conditions: 25 °C/80% RH
# Procedure: Dynamic vapor sorption (DVS) curves were acquired on a DVS IntrInsic from Surface Measurement Systems (SMS). The relative humidity at 25 °C was corrected with the deliquescence points of LiCl, Mg(NO3)2, and KCl. Table A-5. DVS test parameters
# The percentage changes in mass of the samples when the humidity changed (0% RH to 95% RH) at a constant temperature of 25 °C were collected. 157-166.
# [3] = Solid state stability (XRPD and HPLC purity); format: physicochemical
# Description: 167-171. […] Table C-3. Summary of solid state stability evaluation
# [4] = Solubility at room temperature in water, SGF and FaSSIF (HPLC concentration, pH of filtrate, XRPD of residual solid); conditions: listed as Crystal form A of maleate; for S: solubility: feeding concentration 1 mg/mL; for pH: pH of filtrate
# Procedure: 100 mg of NaCl and 50 mg of Triton X-100 were weighed into a 50 mL volumetric flask and then completely dissolved by addition of purified water. 816 µL of 1 M hydrochloric acid was added, and the pH was adjusted to 1.8 with 1 M hydrochloric acid or 1 M NaOH solution. The mixed solution was brought to the volume by addition of purified water.
# 340 mg of anhydrous NaH2PO4 and 620 mg of NaCl were weighed into a 100 mL volumetric flask, and then completely dissolved by addition of purified water. 55.44 µL of a 50% NaOH solution was then added, and the pH was adjusted to 6.5 with 1 M hydrochloric acid or 1 M NaOH solution. The mixed solution was brought to the volume by addition of purified water. Subsequently, 110 mg of SIF powder was weighed into a 50 mL volumetric flask and completely dissolved in the solution described above, and the mixed solution was brought to the volume.
# Solids at a feeding concentration of 1 mg/mL (calculated based on free crystal form) were rotationally mixed with corresponding vehicles at room temperature. […] After sampling at each time point, the samples were centrifuged (at 10000 rpm) and filtered (through a 0.22 µm PTFE filter head), the HPLC concentrations and pH values of the filtrates were determined, and the centrifuged solid samples were subjected to XRPD analysis.
# [5] = 80 °C/sealed, 1 day, listed as Crystal form A of maleate
smiles,measurement,setting,value
Cc1cc(-c2cnn(-c3ccc(NS(=O)(=O)CCO)cc3N3CCC4(CC3)CC4)c2)nc(N2CCC(F)(F)CC2)n1 [crystal form A of the maleate],S: solubility,"[1]; FaSSIF, 1 h, 60 min",62.7 µg/mL
same,S: solubility,"[1]; FaSSIF, 2 h, 120 min",48.9 µg/mL
same,S: solubility,"[1]; FaSSIF, 4 h, 240 min",39.7 µg/mL
same,S: solubility,"[1]; FaSSIF, 24 h, 1440 min",25.3 µg/mL
same,S: solubility,"[1]; FeSSIF, 1 h, 60 min",202.5 µg/mL
same,S: solubility,"[1]; FeSSIF, 2 h, 120 min",182.4 µg/mL
same,S: solubility,"[1]; FeSSIF, 4 h, 240 min",169.5 µg/mL
same,S: solubility,"[1]; FeSSIF, 24 h, 1440 min",94 µg/mL
same,S: solubility,"[1]; H2O, 1 h, 60 min",13.9 µg/mL
same,S: solubility,"[1]; H2O, 2 h, 120 min",9.8 µg/mL
same,S: solubility,"[1]; H2O, 4 h, 240 min",5.2 µg/mL
same,S: solubility,"[1]; H2O, 24 h, 1440 min",0.9 µg/mL
same,S: solubility,"[1]; SGF, 1 h, 60 min",79.5 µg/mL
same,S: solubility,"[1]; SGF, 2 h, 120 min",71.8 µg/mL
same,S: solubility,"[1]; SGF, 4 h, 240 min",57.9 µg/mL
same,S: solubility,"[1]; SGF, 24 h, 1440 min",11.1 µg/mL
same,FC: crystal form change,"[1]; FaSSIF, 1 h",Yes
same,FC: crystal form change,"[1]; FaSSIF, 2 h",Yes
same,FC: crystal form change,"[1]; FaSSIF, 4 h",Yes
same,FC: crystal form change,"[1]; FaSSIF, 24 h",Yes
same,FC: crystal form change,"[1]; FeSSIF, 1 h",Yes
same,FC: crystal form change,"[1]; FeSSIF, 2 h",Yes
same,FC: crystal form change,"[1]; FeSSIF, 4 h",Yes
same,FC: crystal form change,"[1]; FeSSIF, 24 h",Yes
same,FC: crystal form change,"[1]; H2O, 1 h",Yes
same,FC: crystal form change,"[1]; H2O, 2 h",Yes
same,FC: crystal form change,"[1]; H2O, 4 h",Yes
same,FC: crystal form change,"[1]; H2O, 24 h",Yes
same,FC: crystal form change,"[1]; SGF, 1 h",Yes
same,FC: crystal form change,"[1]; SGF, 2 h",Yes
same,FC: crystal form change,"[1]; SGF, 4 h",Yes
same,FC: crystal form change,"[1]; SGF, 24 h",Yes
same,pH,"[1]; FaSSIF, 1 h",2.94
same,pH,"[1]; FaSSIF, 2 h",2.90
same,pH,"[1]; FaSSIF, 4 h",2.90
same,pH,"[1]; FaSSIF, 24 h",2.90
same,pH,"[1]; FeSSIF, 1 h",4.66
same,pH,"[1]; FeSSIF, 2 h",4.68
same,pH,"[1]; FeSSIF, 4 h",4.67
same,pH,"[1]; FeSSIF, 24 h",4.70
same,pH,"[1]; H2O, 1 h",2.00
same,pH,"[1]; H2O, 2 h",2.05
same,pH,"[1]; H2O, 4 h",1.98
same,pH,"[1]; H2O, 24 h",2.03
same,pH,"[1]; SGF, 1 h",1.55
same,pH,"[1]; SGF, 2 h",1.57
same,pH,"[1]; SGF, 4 h",1.54
same,pH,"[1]; SGF, 24 h",1.58
same,vapor sorption values,[2],0.235%
same,HPLC results Relative to starting (%),"[3]; 25 °C/60% RH/open, 1 week",100.0%
same,HPLC results Purity (area%),"[3]; 25 °C/60% RH/open, 1 week, listed as Crystal form A of maleate",98.26 area%
same,HPLC results Relative to starting (%),"[3]; 40 °C/75% RH/open, 1 week",100.0%
same,HPLC results Purity (area%),"[3]; 40 °C/75% RH/open, 1 week, listed as Crystal form A of maleate",98.30 area%
same,HPLC results Purity (area%),[3]; [5],98.08 area%
same,HPLC results Relative to starting (%),[3]; [5],99.8%
same,HPLC results Purity (area%),"[3]; Starting, listed as Crystal form A of maleate",98.29 area%
same,Crystal form,"[3]; XRPD after 25 °C/60% RH/open, 1 week, listed as Crystal form A of maleate",Crystal form A of maleate
same,Crystal form,"[3]; XRPD after 40 °C/75% RH/open, 1 week, listed as Crystal form A of maleate",Crystal form A of maleate
same,Crystal form,"[3]; XRPD after 80 °C/sealed, 1 day, listed as Crystal form A of maleate",Crystal form A of maleate
same,S: solubility,"[4]; FaSSIF, 2 h, 120 min",126.8 µg/mL
same,S: solubility,"[4]; FaSSIF, 24 h, 1440 min",47.9 µg/mL
same,S: solubility,"[4]; H2O, 24 h, 1440 min",0.3 µg/mL
same,S: solubility,"[4]; SGF, 2 h, 120 min",51.2 µg/mL
same,S: solubility,"[4]; SGF, 24 h, 1440 min",36.6 µg/mL
same,pH,"[4]; FaSSIF, 2 h",6.4
same,pH,"[4]; FaSSIF, 24 h",6.2
